Source: US10202404B2, “Polycyclic pyridone derivative having integrase inhibitory activity” (Shionogi & Co., Ltd., priority 2014, dated 2019)

System: HIV
Assay: Anti-HIV activity (MT-4 cells, MTT)
Type: cell-based
Conditions: 50% HIV inhibition concentration, MT-4 cells infected with HIV, incubated 4 days, MTT readout
Method: Previously, a series of two-fold dilution on test samples were carried out in a 96-well plate (50 μL/well). Two plates were made for measuring anti-HIV activity and measuring cytotoxicity. For each agent, measurement in duplicate was carried out. An MT-4 cell suspension of 2.5×10^5/mL was dispensed at 100 μL/well onto the 96-well plate containing the test samples. An HIV virus solution was dispensed at 50 μL/well onto the 96-well plate containing the test samples and the cell. To the plate for measuring cytotoxicity, a culture solution was dispensed at 50 μL/well. It was mixed by a plate mixer, and then incubated in a CO2 incubator for 4 days. […] Thirty microliters of a MTT (3-(4,5-dimethylthiazol-2-yl)-2,5-diphenyltetrazolium bromide) solution was dispensed to each well.
A reaction was allowed to occur in a CO2 incubator for an hour. From each well, 150 μL of the supernatant was removed such that cells are not sucked. One-hundred and fifty microliters of a cell lysis solution was added thereto, and then it was mixed well by a plate mixer until the whole cells are lysed. The mixed 96-well plates were measured by a microplate reader at two wavelengths, 560 nm/690 nm. Based on the following calculation formula, 50% HIV inhibition concentration (EC50) was calculated. EC50=10Z Z=(50%−Low %)/(High %−Low %)×{log(High conc.)−log(Low conc.)}+log(Low conc.) Based on the following calculation formula, 50% cytotoxic concentration (CC50) was calculated. CC50=10Z Z=(50%−Low %)/(High %−Low %)×{log(High conc.)−log(Low conc.)}+log(Low conc.) Based on the following calculation formula, selectivity index (ST) was calculated. SI=CC50/EC50 (Result)

[1] = Human immunodeficiency virus 1, MT4, 96 h

Compound | EC50 [1] [nM] | EC50 [nM]
C[C@@H]1CCN2C(=O)c3c(O)c(=O)c(-c4ncc(Cc5cccc(Cl)c5F)s4)cn3C[C@@H]2O1 [Compound A-5] | 8 | 
C[C@H]1CO[C@@H]2Cn3cc(-c4nnc(Cc5ccc(F)cc5F)s4)c(=O)c(O)c3C(=O)N12 [Compound A-15] | 1.1 | 
C[C@@H]1CCN2C(=O)c3c(O)c(=O)c(-c4nnc(Cc5ccc(F)cc5F)s4)cn3C[C@@H]2O1 [Compound A-16] | 2.1 | 
C[C@@H]1CCO[C@H]2Cn3cc(-c4nnc(Cc5cccc(Cl)c5F)s4)c(=O)c(O)c3C(=O)N12 [Compound A-17] | 2.3 | 
C[C@H]1CO[C@@H]2Cn3cc(-c4nnc(Cc5cccc(Cl)c5F)s4)c(=O)c(O)c3C(=O)N12 [Compound A-18] | 2.3 | 
C[C@@H]1CO[C@H]2Cn3cc(-c4nnc(Cc5ccc(F)cc5F)s4)c(=O)c(O)c3C(=O)N12 [Compound A-19] | 3.1 | 
C[C@@H]1CO[C@H]2Cn3cc(-c4nnc(Cc5cccc(Cl)c5F)s4)c(=O)c(O)c3C(=O)N12 [Compound A-20] | 3 | 
C[C@@H]1CO[C@H]2Cn3cc(-c4nnc(Cc5ccc(F)cc5F)s4)c(=O)c(O)c3C(=O)N2C1 [Compound A-21] | 1 | 
C[C@@H]1CO[C@H]2Cn3cc(-c4nnc(Cc5cccc(Cl)c5F)s4)c(=O)c(O)c3C(=O)N2C1 [Compound A-22] | 1.7 | 
C[C@@H]1CCO[C@H]2Cn3cc(-c4nnc(Cc5c(F)cc(F)cc5F)s4)c(=O)c(O)c3C(=O)N12 [Compound A-23] | 2.6 | 
C[C@@H]1CCO[C@H]2Cn3cc(-c4nnc(Cc5cc(F)c(F)cc5F)s4)c(=O)c(O)c3C(=O)N12 [Compound A-24] | 4.2 | 
C[C@@H]1CCO[C@H]2Cn3cc(-c4nnc(Cc5c(Cl)ccc(Cl)c5F)s4)c(=O)c(O)c3C(=O)N12 [Compound A-27] | 3.5 | 
C[C@H]1CCO[C@@H]2Cn3cc(-c4nnc(Cc5cccc(Cl)c5F)s4)c(=O)c(O)c3C(=O)N12 [Compound A-28] | 3.3 | 
COc1c(F)ccc(Cc2nnc(-c3cn4c(c(O)c3=O)C(=O)N3[C@H](C)CCO[C@H]3C4)s2)c1F [Compound A-32] | 12 | 
C[C@@H]1CCO[C@H]2Cn3cc(-c4nnc(Cc5ccc(F)c(Cl)c5)s4)c(=O)c(O)c3C(=O)N12 [Compound A-33] | 2.5 | 
C[C@@H]1CCO[C@H]2Cn3cc(-c4nnc(Cc5cc(C(F)(F)F)cc(Cl)c5F)s4)c(=O)c(O)c3C(=O)N12 [Compound A-34] | 13 | 
C[C@@H]1CCO[C@H]2Cn3cc(-c4nnc(C(F)(F)c5cccc(Cl)c5F)s4)c(=O)c(O)c3C(=O)N12 [Compound A-43] | 3.6 | 
C[C@@H]1CCO[C@H]2Cn3cc(-c4cn(Cc5ccc(F)cc5F)cn4)c(=O)c(O)c3C(=O)N12 [Compound A-49] |  | 10
C[C@@H]1CCO[C@H]2Cn3cc(-c4cn(Cc5cccc(Cl)c5F)cn4)c(=O)c(O)c3C(=O)N12 [Compound A-50] | 12 | 
C[C@@H]1CCO[C@H]2Cn3cc(-c4nnc(Cc5ccc(F)cc5F)[nH]4)c(=O)c(O)c3C(=O)N12 [Compound A-52] |  | 18
O=C1c2c(O)c(=O)c(-c3nnc(Cc4cccc(Cl)c4F)s3)cn2C[C@@H]2N1C[C@H]1CCCN12 [Compound A-54] | 1.6 | 
O=C1c2c(O)c(=O)c(-c3nnc(Cc4ccc(F)cc4F)s3)cn2C[C@@H]2N1C[C@H]1CCCN12 [Compound A-55] | 1.7 | 
C[C@H]1CCN(C2CC2)[C@@H]2Cn3cc(-c4nnc(Cc5cccc(Cl)c5F)s4)c(=O)c(O)c3C(=O)N12 [Compound A-56] | 4 | 
C[C@H]1N2C(=O)c3c(O)c(=O)c(-c4nnc(Cc5ccc(F)cc5F)s4)cn3C[C@@H]2OCC12CC2 [Compound A-57] | 1.7 | 

Next, values leading:

EC50 [1] [nM] | EC50 [nM] | Compound
7.8 |  | C[C@@H]1CCO[C@H]2Cn3cc(-c4ncc(Cc5cccc(Cl)c5F)s4)c(=O)c(O)c3C(=O)N12 [Compound A-1]
2.5 |  | C[C@H]1CO[C@@H]2Cn3cc(-c4ncc(Cc5cccc(Cl)c5F)s4)c(=O)c(O)c3C(=O)N12 [Compound A-2]
3.7 |  | C[C@@H]1CO[C@H]2Cn3cc(-c4ncc(Cc5cccc(Cl)c5F)s4)c(=O)c(O)c3C(=O)N12 [Compound A-3]
1.9 |  | C[C@H]1CO[C@@H]2Cn3cc(-c4ncc(Cc5ccc(F)cc5F)s4)c(=O)c(O)c3C(=O)N12 [Compound A-6]
6.5 |  | C[C@@H]1CO[C@H]2Cn3cc(-c4ncc(Cc5ccc(F)cc5F)s4)c(=O)c(O)c3C(=O)N12 [Compound A-7]
3.5 |  | C[C@@H]1CO[C@H]2Cn3cc(-c4ncc(Cc5ccc(F)cc5F)s4)c(=O)c(O)c3C(=O)N2C1 [Compound A-8]
7.1 |  | C[C@@H]1CO[C@H]2Cn3cc(-c4ncc(Cc5cccc(Cl)c5F)s4)c(=O)c(O)c3C(=O)N2C1 [Compound A-9]
4.4 |  | C[C@H]1CCO[C@@H]2Cn3cc(-c4ncc(Cc5ccc(F)cc5F)s4)c(=O)c(O)c3C(=O)N12 [Compound A-10]
8.8 |  | C[C@H]1CCO[C@@H]2Cn3cc(-c4ncc(Cc5cccc(Cl)c5F)s4)c(=O)c(O)c3C(=O)N12 [Compound A-11]
4.9 |  | C[C@@H]1CCO[C@H]2Cn3cc(-c4ncc(Cc5c(F)cc(F)cc5F)s4)c(=O)c(O)c3C(=O)N12 [Compound A-12]
6 |  | C[C@@H]1CCO[C@@H]2Cn3cc(-c4ncc(Cc5ccc(F)cc5F)s4)c(=O)c(O)c3C(=O)N12 [Compound A-13]
1.2 |  | C[C@H]1CO[C@@H]2Cn3cc(-c4ncc(Cc5c(F)cc(F)cc5F)s4)c(=O)c(O)c3C(=O)N12 [Compound A-14]
3.4 |  | C[C@@H]1CCO[C@H]2Cn3cc(-c4nnc(Cc5c(F)ccc(Cl)c5F)s4)c(=O)c(O)c3C(=O)N12 [Compound A-25]
3.8 |  | C[C@@H]1CCO[C@H]2Cn3cc(-c4nnc(Cc5ccc(F)c(Cl)c5F)s4)c(=O)c(O)c3C(=O)N12 [Compound A-26]
2.3 |  | C[C@@H]1CCO[C@H]2Cn3cc(-c4nnc(Cc5ccc(F)c(F)c5F)s4)c(=O)c(O)c3C(=O)N12 [Compound A-31]
 | 11 | C[C@@H]1CCO[C@H]2Cn3cc(-c4cnc(Cc5ccc(F)cc5F)s4)c(=O)c(O)c3C(=O)N12 [Compound A-40]
10 |  | C[C@H]1CO[C@@H]2Cn3cc(-c4cnc(Cc5ccc(F)cc5F)s4)c(=O)c(O)c3C(=O)N12 [Compound A-42]
5.1 |  | C[C@H]1CO[C@@H]2Cn3cc(-c4cn(Cc5ccc(F)cc5F)cn4)c(=O)c(O)c3C(=O)N12 [Compound A-44]
4.1 |  | Cc1nc(-c2cn3c(c(O)c2=O)C(=O)N2[C@H](C)CCO[C@H]2C3)sc1Cc1ccc(F)cc1F [Compound A-45]
3.9 |  | Cc1nc(-c2cn3c(c(O)c2=O)C(=O)N2[C@@H](C)CO[C@@H]2C3)sc1Cc1cccc(Cl)c1F [Compound A-46]
3.4 |  | Cc1nc(-c2cn3c(c(O)c2=O)C(=O)N2[C@@H](C)CO[C@@H]2C3)sc1Cc1ccc(F)cc1F [Compound A-47]
14 |  | C[C@@H]1CCO[C@H]2Cn3cc(-c4nc(C(F)(F)F)c(Cc5ccc(F)cc5F)s4)c(=O)c(O)c3C(=O)N12 [Compound A-48]
 | 6.8 | C[C@@H]1CCO[C@H]2Cn3cc(-c4nnc(Oc5ccc(F)cc5F)s4)c(=O)c(O)c3C(=O)N12 [Compound A-51]
